Where two headings read alike, the source gives them in different places.
Tests used:
[1] = biological target: Beta Secretase enzyme (BACE) (Homo sapiens, UniProt P56817); test: In vitro enzymatic BACE FRET (fluorescence resonance energy transfer) assay; format: biochemical;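 also: fluorescence read after 1 h with 50 nM quenched peptide substrate spanning the BACE cleavage site, in pH 4.2 acetate buffer containing 10% DMSO and nonionic detergent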
Abeta peptide = test: In vivo inhibition of beta-secretase (reduction of Abeta peptide in brain and cerebrospinal fluid); parameters: species or system rat; settings: Rattus norvegicus, po, 4 h, orally administered at 30 mg/kg dose, measured after 4 hours;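 also: abeta peptide quantified by sandwich ELISA with electrochemiluminescence readout in rat brain supernatant or CSF, relative to vehicle-dosed control animals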
[2] = Microsomal stability assay, human liver microsomes;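 also: pooled human liver microsomes at 0.25 mg/mL with 1 µM compound and NADPH at 37 °C, pH 7.4, for 30 min, unchanged parent quantified by LC-MS/MS against the 0 min sample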
[3] = Microsomal stability assay, rat liver microsomes;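 also: rat liver microsomes (0.25 mg/mL) with about 1 µM compound plus 1 mM NADPH, pH 7.4, 37 °C for 30 min, parent left measured by LC-MS/MS against 0 min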
CYP3A4 (CYP3A) = CYP3A4 (CYP3A) (Homo sapiens, UniProt P08684); test: in vitro; settings: microsomes, pH 7.4;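 also: inhibition of CYP3A-mediated 1-hydroxymidazolam formation after 10 min incubation with NADPH, quantified by HPLC MS relative to metabolite produced without test compound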
Chain of CYP3A4 (CYP3A) (P08684 2-503): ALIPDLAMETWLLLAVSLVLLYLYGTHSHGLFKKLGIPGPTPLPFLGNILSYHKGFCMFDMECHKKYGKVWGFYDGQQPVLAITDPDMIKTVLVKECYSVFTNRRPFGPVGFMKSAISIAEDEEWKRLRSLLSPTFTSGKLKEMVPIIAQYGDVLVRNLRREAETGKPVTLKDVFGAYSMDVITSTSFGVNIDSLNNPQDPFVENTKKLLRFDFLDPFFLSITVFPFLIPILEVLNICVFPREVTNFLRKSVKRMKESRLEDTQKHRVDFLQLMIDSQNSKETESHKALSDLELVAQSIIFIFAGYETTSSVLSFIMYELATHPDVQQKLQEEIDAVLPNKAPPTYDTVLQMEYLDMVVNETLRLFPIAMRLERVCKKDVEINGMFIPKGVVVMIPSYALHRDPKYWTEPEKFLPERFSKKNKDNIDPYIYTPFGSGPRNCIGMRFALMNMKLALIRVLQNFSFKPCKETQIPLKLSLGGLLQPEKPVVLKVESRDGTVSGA

CYP2D6 = CYP2D6 (Homo sapiens, UniProt P10635); test: CYP2D6 inhibition assay (bufuralol, pooled human liver microsomes)
Chain of CYP2D6 (P10635 whole entry): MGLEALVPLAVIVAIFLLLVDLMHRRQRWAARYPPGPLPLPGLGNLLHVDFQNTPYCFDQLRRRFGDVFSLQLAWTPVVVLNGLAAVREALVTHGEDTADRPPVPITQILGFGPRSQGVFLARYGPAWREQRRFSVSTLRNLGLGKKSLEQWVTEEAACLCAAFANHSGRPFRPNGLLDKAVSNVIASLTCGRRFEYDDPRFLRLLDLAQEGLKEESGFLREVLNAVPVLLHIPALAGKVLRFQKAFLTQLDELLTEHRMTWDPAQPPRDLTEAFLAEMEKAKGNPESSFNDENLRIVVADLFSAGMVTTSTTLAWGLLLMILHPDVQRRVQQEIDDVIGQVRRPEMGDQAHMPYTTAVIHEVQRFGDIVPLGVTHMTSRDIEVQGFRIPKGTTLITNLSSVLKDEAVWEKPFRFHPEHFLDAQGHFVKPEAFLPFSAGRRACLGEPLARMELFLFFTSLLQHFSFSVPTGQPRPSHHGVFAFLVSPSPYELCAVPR

[4] = test system: Aβ40 in conditioned medium of cells stably expressing Amyloid Precursor Protein (APP); test: In vitro BACE cell-based assay (Aβ40 in conditioned medium, sandwich ELISA); settings: Homo sapiens;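 also: compounds added as a dilution series, secreted peptide quantified by europium time-resolved fluorescence readout, potency fitted from percent of control versus compound concentration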
[5] = read-out: BACE1 FRET assay (IC50)
[6] = rat cerebrospinal fluid, read-out: percent reduction of abeta peptide in the cerebrospinal fluid of the rat
[7] = HEK293, HEK cells, read-out: HEK cell assay (IC50)
[8] = rat brain, read-out: percent reduction of abeta peptide in the brain of the rat
[9] = BACE enzyme assay IC50, read-out: BACE1 FRET assay
[10] = 2D6 IC50 (uM), CYP2D6 inhibition
[11] = HEK293, HEK cell-based assay IC50, read-out: HEK cell assay

Chain of Beta Secretase enzyme (BACE) (P56817 46-501): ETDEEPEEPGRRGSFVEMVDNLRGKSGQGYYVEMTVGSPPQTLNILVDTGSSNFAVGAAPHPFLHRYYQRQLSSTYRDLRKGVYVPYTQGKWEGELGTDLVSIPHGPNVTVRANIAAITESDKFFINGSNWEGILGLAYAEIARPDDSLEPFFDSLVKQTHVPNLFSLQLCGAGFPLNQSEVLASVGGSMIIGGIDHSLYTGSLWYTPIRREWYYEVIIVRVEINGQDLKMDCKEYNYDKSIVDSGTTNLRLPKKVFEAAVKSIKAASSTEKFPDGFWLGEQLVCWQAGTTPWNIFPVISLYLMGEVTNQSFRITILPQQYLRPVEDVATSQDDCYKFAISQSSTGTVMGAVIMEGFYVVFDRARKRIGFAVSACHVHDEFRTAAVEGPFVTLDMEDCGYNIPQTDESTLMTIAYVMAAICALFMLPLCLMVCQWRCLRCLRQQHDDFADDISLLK

Row | Compound | IC50 [1, 5] [µM] | inhibition in vivo at 30 mg/kg (Abeta peptide; [6]) [%] | HLM ([2]; human liver microsomes) [µL/min/mg] | RLM ([3]; rat liver microsomes) [µL/min/mg] | IC50 (CYP3A4 (CYP3A)) [nM] | IC50 (CYP2D6; 2D6 IC50, CYP2D6 inhibition) [µM] | IC50 [4, 7] [µM] | inhibition in vivo at 30 mg/kg (Abeta peptide; [8]) [%] | IC50 [1, 9] [µM] | IC50 (CYP2D6; [10]) [µM] | IC50 [4, 11] [µM] | IC50 ([1]; BACE enzyme assay, IC50's in uM, read-out: BACE1 FRET assay) [µM] | HLM ([2]; human liver microsomal data) [µL/min/mg] | RLM ([3]; rat liver microsomal data) [µL/min/mg] | IC50 (CYP2D6; 2D6 IC50 (uM), CYP enzyme inhibition) [µM] | IC50 ([4]; HEK293, HEK cell-based assay, IC50's in uM, read-out: HEK cell assay) [µM]
1 | COCC(=O)N[C@@H](Cc1ccc2c(c1)OCO2)[C@H](O)CN[C@H]1CC2(CCC2)Oc2ncc([C@@H]3CC3(C)C)cc21 [Example 575, N-((1S,2R)-1-(1,3-benzodioxol-5-ylmethyl)-3-(((4′S)-6′-((1R)-2,2-dimethylcyclopropyl)-3′,4′-dihydrospiro[cyclobutane-1,2′-pyrano[2,3-b]pyridin]-4′-yl)amino)-2-hydroxypropyl)-2-methoxyacetamide] | 0.01 | 10 to 80 | 33 | 194 | 100 | 1.5 | 0.016 | – | – | – | – | – | – | – | – | –
2 | CO[C@H](C)C(=O)N[C@@H](Cc1ccc2c(c1)OCO2)[C@H](O)CN[C@H]1CC2(CCC2)Oc2ncc([C@@H]3CC3(C)C)cc21 [Example 578] | 0.018 | – | 36 | 185 | 100 | 2 | 0.019 | 5 to 80 | – | – | – | – | – | – | – | –
3 | COCC(=O)N[C@@H](Cc1cc(F)cc(F)c1)[C@H](O)CN[C@H]1CC2(CCC2)Oc2c1cc(CC(C)(C)C)nc2-c1nccn1C [Example 596] | 0.041 | 10 to 80 | 26 | 39 | 100 | 2.9 | 0.009 | – | – | – | – | – | – | – | – | –
4 | COCC(=O)N[C@@H](Cc1ccncc1)[C@H](O)CN[C@H]1CC2(CCC2)Oc2c(-c3ccncc3)cc(CC(C)C)cc21 [Example 628] | 0.045 | 10 to 80 | 94 | 239 | 100 | 1.9 | 0.007 | – | – | – | – | – | – | – | – | –
5 | COCC(=O)N[C@@H](Cc1cccc(C#N)c1)[C@H](O)CN[C@H]1CC2(CCC2)Oc2c(-c3ccncc3)cc(CC(C)(C)C)cc21 [Example 636] | 0.008 | 10 to 80 | 32 | 90 | 100 | 3 | 0.005 | – | – | – | – | – | – | – | – | –
6 | CC(=O)N[C@@H](Cc1ccc(F)c(-c2nccs2)c1)[C@H](O)CN[C@H]1CC2(CCC2)Oc2ccc(CC(C)(C)C)cc21 [Example 640] | 0.006 | 10 to 80 | 59 | 113 | 700 | 0.3 | 0.053 | – | – | – | – | – | – | – | – | –
7 | CC(=O)N[C@@H](Cc1cccc(-c2nccs2)c1)[C@H](O)CN[C@H]1CC2(CCC2)Oc2ccc(CC(C)(C)C)cc21 [Example 641, N-((1S,2R)-3-(((4S)-6-(2,2-dimethylpropyl)-3,4-dihydrospiro[chromene-2,1′-cyclobutan]-4-yl)amino)-2-hydroxy-1-(3-(1,3-thiazol-2-yl)benzyl)propyl)acetamide] | 0.006 | 10 to 80 | 102 | 165 | 700 | 0.3 | 0.029 | – | – | – | – | – | – | – | – | –
8 | CC(=O)N[C@@H](Cc1cc(F)cc(-c2nccs2)c1)[C@H](O)CN[C@H]1CC2(CCC2)Oc2ncc(CC(C)(C)C)cc21 [Example 643, N-((1S,2R)-3-(((4′S)-6′-(2,2-dimethylpropyl)-3′,4′-dihydrospiro[cyclobutane-1,2′-pyrano[2,3-b]pyridin]-4′-yl)amino)-1-(3-fluoro-5-(1,3-thiazol-2-yl)benzyl)-2-hydroxypropyl)acetamide] | 0.002 | 10 to 80 | 68 | 56 | 100 | 0.7 | 0.012 | 5 to 80 | – | – | – | – | – | – | – | –
9 | CO[C@H](C)C(=O)N[C@@H](Cc1cc(F)cc(F)c1)[C@H](O)CN[C@H]1CC2(CCC2)Oc2c1cc(CC(C)(C)C)nc2-c1cncn1C [Example 652] | 0.028 | 10 to 80 | 26 | 50 | 160 | 2 | 0.02 | – | – | – | – | – | – | – | – | –
10 | CC(=O)N[C@@H](Cc1cc(F)cc(-c2cncs2)c1)[C@H](O)CN[C@H]1CC2(CCC2)Oc2ncc(CC(C)(C)C)cc21 [Example 671, N-((1S,2R)-3-(((4′S)-6′-(2,2-dimethylpropyl)-3′,4′-dihydrospiro[cyclobutane-1,2′-pyrano[2,3-b]pyridin]-4′-yl)amino)-1-(3-fluoro-5-(1,3-thiazol-5-yl)benzyl)-2-hydroxypropyl)acetamide] | – | 10 to 80 | 99 | 48 | 100 | – | – | – | 0.005 | 0.4 | 0.012 | – | – | – | – | –
11 | CC(=O)N[C@@H](Cc1cc(F)cc(F)c1)[C@H](O)CN[C@H]1CC2(CCC2)Oc2c(-c3ccncc3)cc(CC(C)C)cc21 [Example 673] | – | 10 to 80 | 46 | 118 | ≤ 30 | – | – | – | 0.009 | 0.8 | 0.005 | – | – | – | – | –
12 | CC(=O)N[C@@H](Cc1ccc(-c2nccs2)cc1)[C@H](O)CN[C@H]1CC2(CCC2)Oc2ncc(CC(C)(C)C)cc21 [Example 677] | – | 10 to 80 | 57 | 52 | 100 | – | – | 5 to 80 | 0.015 | 1 | 0.028 | – | – | – | – | –
13 | CO[C@H](C)C(=O)N[C@@H](Cc1cc(F)cc(F)c1)[C@H](O)CN[C@H]1CC2(CCC2)Oc2c1cc(CC(C)C)nc2-c1ccncc1 [Example 687] | – | 10 to 80 | 27 | 91 | ≤ 30 | – | – | – | 0.008 | 0.2 | 0.016 | – | – | – | – | –
14 | CO[C@H](C)C(=O)N[C@@H](Cc1ccc(F)c(-c2nccs2)c1)[C@H](O)CN[C@H]1CC2(CCC2)Oc2ncc(CC(C)(C)C)cc21 [Example 690] | – | – | 40 | 53 | 100 | – | – | 5 to 80 | 0.011 | 0.5 | 0.04 | – | – | – | – | –
15 | COCC(=O)N[C@@H](Cc1cccc(-n2ccnc2)c1)[C@H](O)CN[C@H]1CC2(CCC2)Oc2ncc(CC(C)(C)C)cc21 [Example 698, N-((1S,2R)-3-(((4′S)-6′-(2,2-dimethylpropyl)-3′,4′-dihydrospiro[cyclobutane-1,2′-pyrano[2,3-b]pyridin]-4′-yl)amino)-2-hydroxy-1-(3-(1H-imidazol-1-yl)benzyl)propyl)-2-methoxyacetamide] | – | 10 to 80 | 58 | 33 | ≤ 30 | – | – | – | 0.026 | 0.1 | 0.009 | – | – | – | – | –
16 | CO[C@H](C)C(=O)N[C@@H](Cc1cc(F)cc(F)c1)[C@H](O)CN[C@H]1CC2(CCC2)Oc2c1cc(CC(C)C)nc2-c1cncn1C [Example 710] | – | 10 to 80 | 16 | 39 | 100 | – | – | – | 0.026 | 2.8 | 0.018 | – | – | – | – | –
17 | COCC(=O)N[C@@H](Cc1ccc(-c2nccs2)c(F)c1)[C@H](O)CN[C@H]1CC2(CCC2)Oc2ncc(CC(C)(C)C)cc21 [Example 730] | – | 10 to 80 | 57 | 74 | ≤ 30 | – | – | – | 0.039 | 0.7 | 0.027 | – | – | – | – | –
18 | COCC(=O)N[C@@H](Cc1ccc(F)c(-c2nccs2)c1)[C@H](O)CN[C@H]1CC2(CCC2)Oc2ncc(CC(C)(C)F)cc21 [Example 743] | – | 10 to 80 | 22 | 31 | ≤ 30 | – | – | ≥ 30 | 0.016 | 0.6 | 0.037 | – | – | – | – | –
19 | COCC(=O)N[C@@H](Cc1ccc(F)cc1)[C@H](O)CN[C@H]1CC(C)(C)Oc2c1cc(CC(C)C)c1c2OCO1 [Example 747] | – | 10 to 80 | 125 | 217 | 200 | – | – | – | 0.209 | 9.1 | 0.243 | – | – | – | – | –
20 | COCC(=O)N[C@@H](Cc1cc(F)cc(-c2nccs2)c1)[C@H](O)CNC1CC2(CCC2)Oc2ncc(CC(C)(F)F)cc21 (stereo partly drawn) [Example 764, N-((1S,2R)-3-((6′-(2,2-difluoropropyl)-3′,4′-dihydrospiro[cyclobutane-1,2′-pyrano[2,3-b]pyridin]-4′-yl)amino)-1-(3-fluoro-5-(1,3-thiazol-2-yl)benzyl)-2-hydroxypropyl)-2-methoxyacetamide] | – | 10 to 80 | – | – | 300 | – | – | – | – | – | – | 0.011 | 41 | 33 | 0.7 | 0.018
